Laboratory results reported in BindingDB's records for doi:10.1016/j.bmcl.2006.12.033 (F. Hoffmann-La Roche, 2007).

Key:
[1] = biological target: T1, Metabotropic glutamate receptor 5 (Homo sapiens, UniProt P41594); assay: Antagonist activity at mGluR5 by FLIPR
[2] = biological target: T1, Metabotropic glutamate receptor 5; assay: Displacement of [3H]MPEP from mGlu5 receptor

T1 sequence (P41594 whole entry): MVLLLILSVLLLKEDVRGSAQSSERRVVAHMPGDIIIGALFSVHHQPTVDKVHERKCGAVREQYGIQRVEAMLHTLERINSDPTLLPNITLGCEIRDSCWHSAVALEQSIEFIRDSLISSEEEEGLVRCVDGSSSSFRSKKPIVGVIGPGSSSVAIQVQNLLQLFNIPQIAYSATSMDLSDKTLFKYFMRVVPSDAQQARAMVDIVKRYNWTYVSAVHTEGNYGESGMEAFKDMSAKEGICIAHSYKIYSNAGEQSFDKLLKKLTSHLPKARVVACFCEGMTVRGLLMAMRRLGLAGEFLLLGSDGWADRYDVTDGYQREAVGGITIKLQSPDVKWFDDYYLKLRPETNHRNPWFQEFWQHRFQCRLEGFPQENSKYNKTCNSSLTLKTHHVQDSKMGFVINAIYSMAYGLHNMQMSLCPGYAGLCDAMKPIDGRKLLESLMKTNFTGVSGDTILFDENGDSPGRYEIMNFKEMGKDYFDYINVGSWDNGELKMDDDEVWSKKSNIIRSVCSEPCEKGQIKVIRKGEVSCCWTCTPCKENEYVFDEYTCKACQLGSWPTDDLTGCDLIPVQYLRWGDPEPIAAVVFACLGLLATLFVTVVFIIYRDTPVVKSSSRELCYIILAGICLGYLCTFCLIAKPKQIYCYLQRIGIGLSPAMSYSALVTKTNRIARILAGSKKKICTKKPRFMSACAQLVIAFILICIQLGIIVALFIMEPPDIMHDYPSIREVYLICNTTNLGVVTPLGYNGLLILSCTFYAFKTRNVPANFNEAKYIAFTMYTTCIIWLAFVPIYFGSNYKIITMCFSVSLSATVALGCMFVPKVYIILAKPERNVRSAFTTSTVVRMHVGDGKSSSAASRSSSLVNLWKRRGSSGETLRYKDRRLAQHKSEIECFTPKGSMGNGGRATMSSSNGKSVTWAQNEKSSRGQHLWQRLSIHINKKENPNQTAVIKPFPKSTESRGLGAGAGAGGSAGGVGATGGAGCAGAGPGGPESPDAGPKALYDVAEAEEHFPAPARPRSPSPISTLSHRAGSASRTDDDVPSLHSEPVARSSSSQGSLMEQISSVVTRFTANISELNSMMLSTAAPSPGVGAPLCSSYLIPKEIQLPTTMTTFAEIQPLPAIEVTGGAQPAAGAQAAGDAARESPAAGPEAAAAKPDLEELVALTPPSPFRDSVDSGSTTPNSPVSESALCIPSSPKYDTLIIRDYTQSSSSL

IC50 [1] | IC50 [2] | SMILES
> 5 µM | > 5 µM | Cn1cc(O)nc1NC(=O)Nc1ccc(Cl)cc1 [(E)-1-(4-chlorophenyl)-3-(1-methyl-4-oxoimidazolidin-2-ylidene)urea]
> 5 µM | > 5 µM | Cn1cc(O)nc1NC(=O)Nc1cccnc1 [(E)-1-(1-methyl-4-oxoimidazolidin-2-ylidene)-3-(pyridin-3-yl)urea]
